Measured values reported in ChEMBL document CHEMBL6078630, “Design, synthesis, and bioactivity investigation of novel cyclic lipopeptide antibiotics targeting top-priority multidrug-resistant gram-negative bacteria” (Eur J Med Chem, 2024).
In brackets after ≈: the same amount, converted by molar mass. Bridge positions count the residues as written; N and C are the ends. Square brackets hold non-standard residues; d marks the D form. Peptide text beside a SMILES is read from it. * marks the point of attachment. Heptanoyl(6-Me) = CC(C)CCCCC(=O)*; X1 = CC[C@H](C)CCCCC(=O)*; dDab = NCC[C@@H](N)C(=O)O; Dab = NCC[C@H](N)C(=O)O; Dap = NC[C@H](N)C(=O)O

How the values were obtained:
Escherichia coli [1] = experiment: Antibacterial activity against carbapenem-resistant Escherichia coli ATCC BAA-2340 assessed as inhibition of bacterial growth incubated for 16 to 20 hrs by CLSI protocol based broth microdilution method; assay type: functional; conditions: time 16-20 hrs
Klebsiella pneumoniae [2] = experiment: Antibacterial activity against carbapenem-resistant Klebsiella pneumoniae clinical isolate KPN+19-15 assessed as inhibition of bacterial growth incubated for 16 to 20 hrs by CLSI protocol based broth microdilution method; assay type: functional; conditions: time 16-20 hrs
Acinetobacter baumannii [3] = experiment: Antibacterial activity against carbapenem-sensitive Acinetobacter baumannii clinical isolate 19-1 assessed as inhibition of bacterial growth incubated for 16 to 20 hrs by CLSI protocol based broth microdilution method; assay type: functional; conditions: time 16-20 hrs
Klebsiella pneumoniae [4] = experiment: Antibacterial activity against carbapenem-resistant Klebsiella pneumoniae ATCC BAA-1705 assessed as inhibition of bacterial growth incubated for 16 to 20 hrs by CLSI protocol based broth microdilution method; assay type: functional; conditions: time 16-20 hrs
Escherichia coli [5] = experiment: Antibacterial activity against Escherichia coli ATCC BAA-2523 assessed as inhibition of bacterial growth incubated for 16 to 20 hrs by CLSI protocol based broth microdilution method; assay type: functional; conditions: time 16-20 hrs
Pseudomonas aeruginosa [6] = experiment: Antibacterial activity against Pseudomonas aeruginosa ATCC 27853 assessed as inhibition of bacterial growth incubated for 16 to 20 hrs by CLSI protocol based broth microdilution method; assay type: functional; conditions: time 16-20 hrs
[7] = Renal cytotoxicity against HK-2 cells incubated for 72 hrs by CCK8 assay; assay type: toxicity, cell-based; conditions: human
Pseudomonas aeruginosa [8] = experiment: Antibacterial activity against carbapenem-resistant Pseudomonas aeruginosa clinical isolate 19-3 assessed as inhibition of bacterial growth incubated for 16 to 20 hrs by CLSI protocol based broth microdilution method; assay type: functional; conditions: time 16-20 hrs
Acinetobacter baumannii [9] = experiment: Antibacterial activity against Acinetobacter baumannii NCTC 13304 (OXA-27) assessed as inhibition of bacterial growth incubated for 16 to 20 hrs by CLSI protocol based broth microdilution method; assay type: functional; conditions: time 16-20 hrs

| SMILES | MIC (Escherichia coli [1]) [mg/L] | MIC (Klebsiella pneumoniae [2]) [mg/L] | MIC (Acinetobacter baumannii [3]) [mg/L] | MIC (Klebsiella pneumoniae [4]) [mg/L] | MIC (Escherichia coli [5]) [mg/L] | MIC (Pseudomonas aeruginosa [6]) [mg/L] | IC50 at 72 h [7] [mg/L] | MIC (Pseudomonas aeruginosa [8]) [mg/L] | MIC (Acinetobacter baumannii [9]) [mg/L] |
| --- | --- | --- | --- | --- | --- | --- | --- | --- | --- |
| CC(C)CCCCC(=O)N[C@@H](CCN)C(=O)N[C@H](C(=O)N[C@H](CO)C(=O)N[C@H]1CCNC(=O)[C@H]([C@@H](C)O)NC(=O)[C@H](CCN)NC(=O)[C@H](CCN)NC(=O)[C@H](CC(C)C)NC(=O)[C@H](Cc2ccccc2)NC(=O)[C@H](CCN)NC1=O)[C@@H](C)O | ≤ 0.03 | ≤ 0.03 | ≤ 0.03 | 0.125 (≈ 0.106 µM) | 0.06 (≈ 0.051 µM) | 1 (≈ 0.85 µM) | > 500 | 2 (≈ 1.7 µM) | ≤ 0.03 |
| CC(C)C[C@@H]1NC(=O)[C@H](CCN)NC(=O)[C@@H](NC(=O)[C@@H](CO)NC(=O)[C@@H](NC(=O)[C@H](CCN)NC(=O)CCCCCCC(=O)O)[C@@H](C)O)CCNC(=O)[C@H]([C@@H](C)O)NC(=O)[C@H](CCN)NC(=O)[C@H](CCN)NC(=O)[C@H]([C@@H](C)O)NC1=O | 0.125 (≈ 0.108 µM) | 0.25 (≈ 0.215 µM) | 0.5 (≈ 0.431 µM) | 0.5 (≈ 0.431 µM) | 0.125 (≈ 0.108 µM) | 8 (≈ 6.89 µM) | > 500 | 8 (≈ 6.89 µM) | 0.25 (≈ 0.215 µM) |
| CC(C)CCCCC(=O)N[C@@H](CCN)C(=O)N[C@H](C(=O)N[C@H](CO)C(=O)N[C@H]1CCNC(=O)[C@H]([C@@H](C)O)NC(=O)[C@H](CN)NC(=O)[C@H](CCN)NC(=O)[C@H]([C@@H](C)O)NC(=O)[C@@H](Cc2ccccc2)NC(=O)[C@H](CCN)NC1=O)[C@@H](C)O ({Heptanoyl(6-Me)}-[Dab]T[dS][Dab][Dab][dF]T[Dab][Dap]T; lactam 4-C) | ≤ 0.03 | ≤ 0.03 | 0.06 (≈ 0.0522 µM) | 0.06 (≈ 0.0522 µM) | ≤ 0.03 | 8 (≈ 6.95 µM) | > 500 | 8 (≈ 6.95 µM) | ≤ 0.03 |
| CC[C@H](C)CCCCC(=O)N[C@@H](CCN)C(=O)N[C@H](C(=O)N[C@H](CCN)C(=O)N[C@H]1CCNC(=O)[C@H]([C@@H](C)O)NC(=O)[C@H](CCN)NC(=O)[C@H](CCN)NC(=O)[C@H]([C@@H](C)O)NC(=O)[C@@H](Cc2ccccc2)NC(=O)[C@H](CCN)NC1=O)[C@@H](C)O (X1-[Dab]T[dDab][Dab][Dab][dF]T[Dab][Dab]T; lactam 4-C) | ≤ 0.03 | ≤ 0.03 | ≤ 0.03 | ≤ 0.03 | ≤ 0.03 | 1 (≈ 0.839 µM) | 371 (≈ 311 µM) | 1 (≈ 0.839 µM) | ≤ 0.03 |
| CC(C)CCCCC(=O)N[C@@H](CCN)C(=O)N[C@H](C(=O)N[C@H](CCCCN)C(=O)N[C@H]1CCNC(=O)[C@H]([C@@H](C)O)NC(=O)[C@H](CCN)NC(=O)[C@H](CCN)NC(=O)[C@H]([C@@H](C)O)NC(=O)[C@@H](Cc2ccccc2)NC(=O)[C@H](CCN)NC1=O)[C@@H](C)O | 1 (≈ 0.83 µM) | 0.25 (≈ 0.207 µM) | 0.5 (≈ 0.415 µM) | 0.125 (≈ 0.104 µM) | 0.125 (≈ 0.104 µM) | 32 (≈ 26.5 µM) | > 500 | 4 (≈ 3.32 µM) | 0.5 (≈ 0.415 µM) |
| CC(C)CCCCC(=O)N[C@@H](CCN)C(=O)N[C@H](C(=O)N[C@H](CCN)C(=O)N[C@H]1CCNC(=O)[C@H]([C@@H](C)O)NC(=O)[C@H](CCN)NC(=O)[C@H](CCN)NC(=O)[C@H]([C@@H](C)O)NC(=O)[C@@H](Cc2ccccc2)NC(=O)[C@H](CCN)NC1=O)[C@@H](C)O ({Heptanoyl(6-Me)}-[Dab]T[dDab][Dab][Dab][dF]T[Dab][Dab]T; lactam 4-C) | ≤ 0.03 | ≤ 0.03 | 0.06 (≈ 0.051 µM) | 0.125 (≈ 0.106 µM) | ≤ 0.03 | 0.5 (≈ 0.425 µM) | > 500 | 0.5 (≈ 0.425 µM) | ≤ 0.03 |
| CC(C)CCCCC(=O)N[C@@H](CCN)C(=O)N[C@H](C(=O)N[C@@H](CO)C(=O)N[C@H]1CCNC(=O)[C@H]([C@@H](C)O)NC(=O)[C@H](CCN)NC(=O)[C@H](CCN)NC(=O)[C@H]([C@@H](C)O)NC(=O)[C@@H](CC(C)C)NC(=O)[C@H](CCN)NC1=O)[C@@H](C)O | 2 (≈ 1.77 µM) | 4 (≈ 3.54 µM) | 8 (≈ 7.08 µM) | 4 (≈ 3.54 µM) | 2 (≈ 1.77 µM) | > 64 | > 500 | 64 (≈ 56.6 µM) | 8 (≈ 7.08 µM) |
